The structures appear in SMILES notation.

The values that follow come from BindingDB's records for doi:10.1021/jm991125l (Institut Curie, 2000).

The nature of this assay: Effective concentration required to achieve 50% inhibition of HIV-1 LAI replication in human T4 lymphoblastoid CEM-SS cells.

`CCc1c(Sc2cc(C)cc(C)c2)n(CCCCC(=O)NCCCCCCCCCCCCNc2ccn(C3CCC(CO)O3)c(=O)n2)c(=O)[nH]c1=O` (configuration not stated) had an EC50 of 0.43 µM.
On to `CCc1c(Sc2cc(C)cc(C)c2)n(CCCCC(=O)OC)c(=O)[nH]c1=O`, for which the EC50 was 0.025 µM.
In turn, `CCc1c(C)[nH]c(=O)c(NC(=O)CCCC(=O)O)c1Cc1cc(C)cc(C)c1` came in with an EC50 of 4.5 µM. This EC50 lies about 180-fold higher than the previous one.
`CCc1c(C)[nH]c(=O)c(NC(=O)CNC(=O)CNC(=O)OC(C)(C)C)c1Cc1cc(C)cc(C)c1` yielded an EC50 of 3.2 µM.
As for `COC(=O)CCCNC(=O)CCc1cn(C2CC(N=[N+]=[N-])C(CO)O2)c(=O)[nH]c1=O` (configuration not stated), the figure is over 100 µM; as for `CCc1c(C)[nH]c(=O)c(NC(=O)CCCCCCCCCN)c1Cc1cc(C)cc(C)c1`, 58 µM.
Turning to `CCc1c(C)[nH]c(=O)c(NC(=O)CCCCCCCCC(=O)O)c1Cc1cc(C)cc(C)c1`, the EC50 worked out at 70 µM.
In turn, `CCc1c(C)[nH]c(=O)c(NC(=O)CNC(=O)CN)c1Cc1cc(C)cc(C)c1` came in with an EC50 of 0.72 µM.
`CCc1c(Sc2cc(C)cc(C)c2)n(CCCCC(=O)NCCCCNC(=O)CCc2cn(C3CC(N=[N+]=[N-])C(CO)O3)c(=O)[nH]c2=O)c(=O)[nH]c1=O` (configuration not stated): a half-maximal effect (EC50) was put at 3.3 µM.
Regarding `CCc1c(C)[nH]c(=O)c(NC(=O)CCCC(=O)OC)c1Cc1cc(C)cc(C)c1`, the 50% effective concentration (EC50) was found to be 24 µM.
`COC(=O)CCc1cn(C2CC(N=[N+]=[N-])C(CO)O2)c(=O)[nH]c1=O` (configuration not stated) returned an EC50 of over 100 µM.
Turning to `CCc1c(C)[nH]c(=O)c(NC(=O)CCCCCCCCCNC(=O)OC(C)(C)C)c1Cc1cc(C)cc(C)c1`, the concentration for a half-maximal effect (EC50) was over 10 µM.
`CCc1c(Sc2cc(C)cc(C)c2)n(CCCCC(=O)NCCCCCCCCCCNC(=O)CCn2c(=O)c(C)cn(C3CC(N=[N+]=[N-])C(CO)O3)c2=O)c(=O)[nH]c1=O` (configuration not stated) showed an EC50 of 2.8 µM.
In turn, `CCc1c(Sc2cc(C)cc(C)c2)n(CCCCC(=O)NCCCCCCCCCCNC(=O)CCc2cn(C3CC(N=[N+]=[N-])C(CO)O3)c(=O)[nH]c2=O)c(=O)[nH]c1=O` (configuration not stated) returned an EC50 of 1.7 µM.
As for `CCOC(=O)CCn1c(=O)c(C)cn(C2CC(N=[N+]=[N-])C(CO)O2)c1=O` (configuration not stated), the figure is 0.8 µM.
As to `[N-]=[N+]=NC1CC(n2cc(CCC(=O)NCCCCN)c(=O)[nH]c2=O)OC1CO` (configuration not stated), the EC50 is over 100 µM.
In turn, `NCCCCCCCCCCCCNc1ccn(C2CCC(CO)O2)c(=O)n1` (configuration not stated) yielded an EC50 of 7.8 µM.
For `CCc1c(C)[nH]c(=O)c(NC(=O)CCCCCCCCC(=O)OC)c1Cc1cc(C)cc(C)c1` the value was over 10 µM.
In the case of `[N-]=[N+]=NC1CC(n2cc(CCC(=O)NCCCCCCCCCCN)c(=O)[nH]c2=O)OC1CO` (configuration not stated), the EC50 was determined as 20 µM.
As to `Cc1cn([C@H]2C[C@H](N=[N+]=[N-])[C@@H](CO)O2)c(=O)[nH]c1=O` [1-((2R,4S,5S)-4-Azido-5-hydroxymethyl-tetrahydro-furan-2-yl)-5-methyl-1H-pyrimidine-2,4-dione], the EC50 amounted to 0.002 µM.
In turn, `CCc1c(C)[nH]c(=O)c(N)c1Cc1cc(C)cc(C)c1` [3-amino-4-[(3,5-dimethylphenyl)methyl]-5-ethyl-6-methyl-1,2-dihydropyridin-2-one] displayed an EC50 of 0.017 µM.
In turn, `Nc1ccn([C@H]2CC[C@@H](CO)O2)c(=O)n1` [Dideoxycytidine] had an EC50 of 0.031 µM.
